system: platelet ADP receptors; assay: ARB binding assay (platelet ADP receptor binding, [3H]2-MeS-ADP); set-up: species or system human; conditions: relative activities of selected compounds in the ARB binding assay
Experimental: Utilizing the second assay the potency of inhibition of such compounds with respect to [^3H]2-MeS-ADP binding to whole platelets is determined. [^3H]2-MeS-ADP binding experiments are routinely performed with outdated human platelets collected by standard procedures at hospital blood banks. Apyrase-washed outdated platelets are prepared as follows (all steps at room temperature, if not indicated otherwise):
Outdated platelet suspensions are diluted with 1 volume of CGS and platelets pelleted by centrifugation at 1900×g for 45 minutes. Platelet pellets are resuspended at 3–6×10^9 platelets/ml in CGS containing 1 U/ml apyrase (grade V, Sigma, St. Louis, Mo.) and incubated for 15 minutes at 37° C. After centrifugation at 730×g for 20 minutes, pellets are resuspended in Hepes-Tyrode's buffer containing 0.1% BSA (Sigma, St. Louis, Mo.) at a concentration of 6.66×10^8 platelets/ml. Binding experiments are performed after >45 minutes resting of the platelets.
Alternatively, binding experiments are performed with fresh human platelets prepared as described in I.(Inhibition of ADP-Mediated Platelet Aggregation in vitro), except that platelets are resuspended in Hepes-Tyrode's buffer containing 0.1% BSA (Sigma, St. Louis, Mo.) at a concentration of 6.66×10^8 platelets/ml. Very similar results are obtained with fresh and outdated platelets.
A platelet ADP receptor binding assay using the tritiated potent agonist ligand [^3H]2-MeS-ADP (Jantzen, H. M. et al. (1999) Thromb. Hemost. 81:111–117) has been adapted to the 96-well microtiter format. In an assay volume of 0.2 ml Hepes-Tyrode's buffer with 0.1% BSA and 0.6% DMSO, 1×10^8 apyrase-washed platelets are preincubated in 96-well flat bottom microtiter plates for 5 minutes with serial dilutions of test compounds before addition of 1 nM [^3H]2-MeS-ADP ([^3H]2-methylthioadenosine-5′-diphosphate, ammonium salt; specific activity 48–49 Ci/mmole, obtained by custom synthesis from Amersham Life Science, Inc., Arlington Heights, Ill., or NEN Life Science Products, Boston, Mass.). Total binding is determined in the absence of test compounds. Samples for nonspecific binding may contain 10^−5 M unlabelled 2-MeS-ADP (RBI, Natick, Mass.). After incubation for 15 minutes at room temperature, unbound radioligand is separated by rapid filtration and two washes with cold (4–8° C.) Binding Wash Buffer (10 mM Hepes pH 7.4, 138 mM NaCl) using a 96-well cell harvester (Minidisc 96, Skatron Instruments, Sterling, Va.) and 8×12 GF/C glassfiber filtermats (Printed Filtermat A, for 1450 Microbeta, Wallac Inc., Gaithersburg, Md.). The platelet-bound radioactivity on the filtermats is determined in a scintillation counter (Microbeta 1450, Wallac Inc., Gaithersburg, Md.). Specific binding is determined by subtraction of non-specific binding from total binding, and specific binding in the presence of test compounds is expressed as % of specific binding in the absence of test compounds dilutions.

Structure (SMILES)	Relative Activity
CCc1cc2c(N3CCN(C(=O)CCC(=O)OC)CC3)ncnc2s1 [Example 384, 4-[4-(6-Ethyl-thieno[2,3-d]pyrimidin-4-yl)-piperazin-1-yl]-4-oxo-butyric acid methyl ester]	+ (>20 micromolar)
CCc1cc2c(N3CCN(C(=O)CCCCC#N)CC3)ncnc2s1 [Example 395, 6-[4-(6-Ethyl-thieno[2,3-d]pyrimidin-4-yl)-piperazin-1-yl]-6-oxo-hexanenitrile]	+ (>20 micromolar)
CCc1cc2c(N3CCN(C(=O)C(c4ccccc4)c4ccccc4)CC3)ncnc2s1 [Example 70, 1-[4-(6-ethylthiopheno[3,2-e]pyrimidin-4-yl)piperazinyl]-2,2-diphenylethan-1-one]	+ (>20 micromolar)
CCc1cc2c(N3CCN(C(=O)CCC(C)C)CC3)ncnc2s1 [Example 17, 1-[4-(6-ethylthiopheno[3,2-e]pyrimidin-4-yl)piperazinyl]-4-methylpentan-1-one]	+++ (<10 micromolar)
CCc1cc2c(N3CCN(C(=O)c4snnc4-c4ccccc4)CC3)ncnc2s1 [Example 348, [4-(6-Ethyl-thieno[2,3-d]pyrimidin-4-yl)-piperazin-1-yl]-(4-phenyl-[1,2,3]-thiadiazol-5-yl)-methanone]	+ (>20 micromolar)
CCc1cc2c(N3CCN(C(=O)C(c4ccccc4)N4CCNCC4)CC3)ncnc2s1 (stereo not drawn) [Example 432, 1-[4-(6-Ethyl-thieno[2,3-d]pyrimidin-4-yl)-piperazin-1-yl]-2-phenyl-2-piperazin-1-yl-ethanone]	+ (>20 micromolar)
CCc1cc2c(N3CCN(C(=O)c4ccc(-c5ccccc5)s4)CC3)ncnc2s1 [Example 408, [4-(6-Ethyl-thieno[2,3-d]pyrimidin-4-yl)-piperazin-1-yl]-(5-phenyl-thiophen-2-yl)-methanone]	++ (10–20 micromolar)
C#Cc1cc2c(N3CCN(C(=O)CC(F)(F)F)CC3)ncnc2s1 [Example 135, 1-[4-(6-ethlylylthiopheno[3,2-e]pyrimidin-4-yl)piperazinyl]-3,3,3-trifluoropropan-1-one]	+++ (<10 micromolar)
CCc1cc2c(N3CCN(C(=O)CCCC(=O)O)CC3)ncnc2s1 [Example 390, 5-[4-(6-Ethyl-thieno[2,3-d]pyrimidin-4-yl)-piperazin-1-yl]-5-oxo-pentanoic acid]	+ (>20 micromolar)
CCc1cc2c(N3CCN(C(=O)c4cccc(COn5nnc6ccccc65)c4)CC3)ncnc2s1 [Example 250, [3-(Benzotriazol-1-yloxymethyl)-phenyl]-[4-(6-ethyl-thieno[2,3-d]pyrimidin-4-yl)-piperazin-1-yl]-methanone]	++ (10–20 micromolar)
CCc1cc2c(N3CCN(C(=O)Cc4ccccc4)C(C)C3)ncnc2s1 (stereo not drawn) [Example 197, 1-[4-(6-ethylthiopheno[3,2-e]pyrimidin-4-yl)-2-methylpiperazinyl]-2-phenylethan-1-one]	++ (10–20 micromolar)
CCc1cc2c(N3CCN(C(=O)Cc4ccccc4)CC3c3ccccc3)ncnc2s1 (stereo not drawn) [Example 206, 1-[4-(6-ethylthiopheno[3,2-e]pyrimidin-4-yl)-3-phenylpiperazinyl]-2-phenylethan-1-one]	+ (>20 micromolar)
